Assay results published in patent publication US9573907B2, “2, 4-pyrimidine derivatives and use thereof” (SNU R&DB FOUNDATION, priority 2009, dated 2017).

Legend:
gp96tm transgenic mice = tested on: gp96tm transgenic mice
Procedure: Female gp96tm transgenic mice (Proc Natl Acad Sci USA. 2003 December 23; 100(26): 15824-15829) were bred and maintained at the animal center for pharmaceutical research, Seoul National University. We used age-matched, 12-26 weeks old mice in each experimental group. To suppress cell surface gp96 we used GPM1 compound. Dexamethasone and GPM1 were dissolved in 5% DMSO in phosphate-buffered saline (PBS) and control vehicle was 5% DMSO in PBS. Compounds were administered i.p. every 24 h for 2 months (30 mg/kg/day). Three groups of each 9 mice were examined. All procedures were conducted in accordance with the Guide for the Care and Use of Laboratory Animals, published by the Korean National Institute of Health.
Spleen and lymph node cell suspensions were prepared by grindling tissue through sterile mesh and erythrocytes were lysed with RBC lysis buffer (eBioscience, CA). For surface staining, antibodies were fluoresceinisothiocyanate (FITC)-, phycoerythrin (PE)-, PerCP-, or APC-conjugated. Antibodies used were CD4 (RM4-5, H129.12), CD8 (53-6,7), B220 (RA3-6B2), CD11b (M1/70), CD11c (HL3), CD44 (IM7), CD62L (MEL-14), CD69 (H1.2F3), CD25 (PC61.5), IgM (11/41), IgD (11-26C.2a) (BD Pharmingen, CA), MHC class II (M5/114.15.2), Foxp3 (FJK-16s) (eBioscience, CA), and gp96 (Santacruz, Calif.). After staining, cells were washed and analyzed on a FACS can flow cytometer using CellQuest software (BD Bioscience, Mountain View, Calif.).
Kidney tissue sections of gp96tm transgenic mice were fixed in 10% formaldehyde in PBS and dehydrated using an alcohol gradient. After paraffin infiltration, the tissues were sectioned using a microtome, stained with hematoxylin and eosin (H&E) and analyzed by light microscopy. For immunofluorescent staining, kidneys were sectioned with a cryostat. These cryosections were blocked with normal goat serum, stained with FITC-conjugated goat anti-mouse Ig (BD pharmingen, CA), and then observed by fluorescent microscopy.
The present inventors compared the effect of GPM1 with phosphate-buffered saline containing 5% DMSO and dexamethasone (Dex), an immunosuppressant of glucocorticoid family as negative and positive control, respectively. Each group consisted of age-matched nine female mice. […] After 2 month, the present inventors isolated MHC class II^+ splenocytes and lymph nodes from vehicle-, Dex-, and GPM1-treated mice and determined the portion of gp96^+ cells by flow cytometry.

NZB/W F1 mouse = experiment: Survival rate of a lupus animal model; type: in vivo; details: 30 mg/kg intraperitoneally once a day, 25-week aged male mice
Procedure: An NZB/W F1 mouse is a lupus animal model showing a voluntary lupus symptom. On the animal model, the effect of 2,4-pyrimidine derivatives was tested.
Each group included 10, 25-week aged male NZB/W F1 mice. Each group was intraperiotneally administered with a control (5% DMSO solution) or a testing agent (2,4-pyrimidine derivative in a dose of 30 mg/kg) once a day. Except for mice which died by worsening of lupus symptoms, the ratio of surviving mice was analyzed.

gp96 V706A/L707A = target: T1, gp96 V706A/L707A (Homo sapiens, UniProt P14625, L711A/V710A); experiment: Surface plasmon resonance, GPM1 binding to gp96 mutant V706A/L707A
T1 construct: made in house; host or cells: Escherichia coli BL21 (DE3)
Procedure: (§1) Human gp96 was expressed as His tag fusion protein in Escherichia coli BL21 (DE3) and purified by nickel affinity chromatography. His-tagged human gp96 was immobilized onto CM5 sensor chips using standard amine coupling2. PBS was used as a running buffer. The carboxymethyl dextran surface within one side of the flow cell was activated with a 7-min injection of a 1:1 ratio of 0.4M EDC and 0.1M NHS. The protein was coupled to the surface with a 7-min injection of gp96 diluted in 10 mM sodium acetate, pH 3.7. Remaining activated groups were blocked with a 7-min injection of 1.0M ethanolamine, pH 8.5. GPM1 compound was dissolved directly in the PBS running buffer containing 1% DMSO and injected at a flow rate of 20 μl/min at 25° C. and the binding was determined by the change in resonance units (RU). The compound concentration varied from 10 nM to 25 μM and each concentration was tested at least three times. All of the bound complexes dissociated back to baseline within a reasonable time frame. Therefore, no regeneration was required. Sensorgram was processed by subtracting the binding response recorded from the control surface, followed by subtracting an average of the buffer blank injections from the reaction spot. To determine kinetic rate constants, all data sets were fit to a simple 1:1 binding with drifting baseline model using BIAevaluation program.
(§2) The present inventors compared the dose-dependent effect of GPM1 and NC1 on the interaction of gp96 and AIMP1 using ELISA. […] The present inventors monitored the binding kinetics of GPM1 to gp96 or AIMP1 by surface plasmon resonance (SPR) using BIAcore 3000. […] To further define the GPM1 binding region of gp96 (Han, J. M., Park, S. G., Liu, B., Park, B. J., Kim, J. Y., Jin, C. H., Song, Y. W., Li, Z. & Kim, S. Am. J. Pathol. 170, 2042-2054 (2007)), the present inventors introduced point mutations at L707, V706, V712, L713, F714, Y731 and M738 that are located within AIMP1 binding region of gp96 and monitored how the mutations at these sites would affect the binding of GPM1 to gp96 using SPR method.

gp96 V712A/L713A/F714Y = target: T2, gp96 V712A/L713A/F714Y (Homo sapiens, UniProt P14625, F718Y/L717A/V716A); experiment: Surface plasmon resonance, GPM1 binding to gp96 mutant V712A/L713A/F714Y
T2 construct: made in house; host or cells: Escherichia coli BL21 (DE3)
Procedure: as §1, §2

gp96 = gp96 (Homo sapiens, UniProt P14625); experiment: Surface plasmon resonance, GPM1 binding to gp96 WT; set-up: made in house; host or cells: Escherichia coli BL21 (DE3)
Procedure: as §1

gp96 M738L = target: T3, gp96 M738L (Homo sapiens, UniProt P14625, M742L); experiment: Surface plasmon resonance, GPM1 binding to gp96 mutant M738L
T3 construct: made in house; host or cells: Escherichia coli BL21 (DE3)
Procedure: as §1, §2

[1] = spleen and lymph nodes, 30 mg/kg

Sequence of gp96 (P14625 22-803): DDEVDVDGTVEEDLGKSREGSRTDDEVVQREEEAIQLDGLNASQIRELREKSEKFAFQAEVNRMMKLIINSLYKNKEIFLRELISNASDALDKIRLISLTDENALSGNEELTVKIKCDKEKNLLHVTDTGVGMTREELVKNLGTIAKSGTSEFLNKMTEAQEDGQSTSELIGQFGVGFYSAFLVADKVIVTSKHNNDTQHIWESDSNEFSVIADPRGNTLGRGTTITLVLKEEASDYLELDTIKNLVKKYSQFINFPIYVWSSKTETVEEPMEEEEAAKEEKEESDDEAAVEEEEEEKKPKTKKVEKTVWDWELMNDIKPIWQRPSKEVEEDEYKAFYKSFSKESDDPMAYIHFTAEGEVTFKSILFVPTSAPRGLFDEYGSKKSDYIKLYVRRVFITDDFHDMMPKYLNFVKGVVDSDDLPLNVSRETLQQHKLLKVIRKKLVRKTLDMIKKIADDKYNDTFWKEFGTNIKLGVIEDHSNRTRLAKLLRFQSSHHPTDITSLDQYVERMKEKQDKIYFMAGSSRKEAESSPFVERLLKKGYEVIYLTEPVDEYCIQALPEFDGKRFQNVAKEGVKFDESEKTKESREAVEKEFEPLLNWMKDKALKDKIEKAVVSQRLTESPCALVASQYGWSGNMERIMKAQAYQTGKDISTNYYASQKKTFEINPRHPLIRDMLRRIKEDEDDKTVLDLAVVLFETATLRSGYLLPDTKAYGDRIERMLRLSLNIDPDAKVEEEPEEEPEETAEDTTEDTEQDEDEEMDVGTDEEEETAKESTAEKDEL
T3 sequence (P14625 22-803 M742L): as the sequence (P14625 22-803) above, with M721L counted along it
T2 sequence (P14625 22-803 V716A/L717A/F718Y): as the sequence (P14625 22-803) above, with V695A, L696A, F697Y counted along it
T1 sequence (P14625 22-803 V710A/L711A): as the sequence (P14625 22-803) above, with V689A, L690A counted along it

SMILES: COC(=O)[C@@H](Oc1nc(OC)cc(OC)n1)C(C)C [GPM1, (S)-methyl 2-(4,6-dimethoxypyrimidin-2-yloxy)-3-methylbutanoate]
- glomerulonephritis phenotypes and glomerular immunoglobulin deposition (gp96tm transgenic mice; kidney sections): lessened
- total cell count (spleen) (gp96tm transgenic mice; mouse, in vivo, 30 mg/kg/day): 4.56 ± 1.44 × 10^6
- adverse effects / death during administration (gp96tm transgenic mice; mouse, in vivo, ip, 30 mg/kg): did not give apparent adverse effects
- DNA-specific autoantibody levels (gp96tm transgenic mice; serum): reduced
- Nuclear antigen-specific autoantibody levels (gp96tm transgenic mice; serum): reduced
- total serum levels of IgG1, IgG2b, IgG3, IgM, and IgA (gp96tm transgenic mice; serum, ELISA): reduced
- CD4+CD25+Foxp3+ regulatory T cell population (gp96tm transgenic mice; spleen and lymph nodes): increase
- population of CD4+ memory cells and activated CD4+ T cells (gp96tm transgenic mice; spleen and lymph nodes): reduction
- B220+ population (gp96tm transgenic mice; [1]): reduced
- MHC class II+ population (gp96tm transgenic mice; [1]): reduced
- mature B cell population (B220+IgM+IgD+) (gp96tm transgenic mice; splenocytes): decreased
- ICOSL levels in CD11b+CD11c+ myeloid DC (gp96tm transgenic mice; splenocytes, 30 mg/kg): significantly reduced
- ICOSL levels in CD11b+CD11c− macrophages (gp96tm transgenic mice; splenocytes, 30 mg/kg): suppressed
- ICOSL levels in CD11b−CD11c+ lymphoid DCs (gp96tm transgenic mice; splenocytes, 30 mg/kg): little difference
- percentages of gp96+ MHC class II+ cells (gp96tm transgenic mice; splenocytes, after 2 month, 30 mg/kg): ~41%
- Proteinuria (gp96tm transgenic mice; urine): reduced
- ratio of mice which died by lupus (NZB/W F1 mouse): significantly reduced
- Kd (gp96 V706A/L707A): 88.6 nM
- koff (dissociation rate constant) (gp96 V706A/L707A): 0.0102 s⁻¹
- kon (gp96 V706A/L707A; read-out: Ka): 115000 M⁻¹ s⁻¹
- Kd (gp96 V712A/L713A/F714Y): 21900 nM
- koff (dissociation rate constant) (gp96 V712A/L713A/F714Y): 0.0142 s⁻¹
- kon (gp96 V712A/L713A/F714Y; read-out: Ka): 650 M⁻¹ s⁻¹
- Kd (gp96): 87.9 nM
- koff (dissociation rate constant) (gp96): 0.0154 s⁻¹
- kon (gp96; read-out: Ka): 175000 M⁻¹ s⁻¹
- Kd (gp96 M738L): 210 nM
- koff (dissociation rate constant) (gp96 M738L): 0.0132 s⁻¹
- kon (gp96 M738L; read-out: Ka): 63000 M⁻¹ s⁻¹
